Measured values from patent US20210355105A1, “REGULATOR OF NITROGEN-CONTAINING HETEROAROMATIC DERIVATIVES, PREPARATION METHOD THEREFOR AND USE THEREOF” (Jiangsu Hansoh Pharmaceutical Group Co., Ltd., priority 2018, published 2021).

Tests used:
NCI-H358 cells = experiment: Proliferation inhibition of NCI-H358 cells (CellTiter-Glo); type: cell-based; conditions: Homo sapiens, NCI-H358, 72 h; 3 days incubation
Method: Experimental method: 3000 cells (90 μL of cell suspension) were inoculated to each well of a 96-well cell culture plate (Corning, #3610). The culture plate was incubated in an incubator overnight (37° C., 5% CO2). On the next day, 10 μL of gradient dilutions of the test compound solution (the final DMSO content was 0.2%, V/V, the final concentration of the reaction system ranged from 10 μM to 4.5 nM) was added to each well of the culture plate. At the same time, full activity control (compound only with DMSO) and full inhibition control (no cells) were set up on the reaction plate. The culture plate was incubated in the incubator for 3 days (37° C., 5% CO2).
After completion of the incubation, 50 μL of CellTiter-Glo reagent was added to each well of the cell culture plate, which was left to stand at room temperature for 10 minutes. The chemiluminescence signal value was measured in the Synergy H1 full-function microplate reader (BioTek). […] The IC50 value of the test compounds was calculated by fitting the percentage inhibition rate and data of eight concentrations to a four-parameter nonlinear logic formula with GraphPad prism.
The IC50 value was calculated by fitting the data of different concentrations and corresponding percentage inhibition rates to a four-parameter nonlinear logic formula with GraphPad prism.

[1] = biological target: T1, SHP-2 full-length protein (Homo sapiens, UniProt Q06124); experiment: Inhibition of SHP-2 kinase activity (Homogeneous Full Length SHP-2 Assay Kit); type: biochemical; conditions: relative IC50, full-length SHP-2 with activating peptide
T1 construct: purchased BPS Bioscience 79330
T1 sequence (Q06124 1-593): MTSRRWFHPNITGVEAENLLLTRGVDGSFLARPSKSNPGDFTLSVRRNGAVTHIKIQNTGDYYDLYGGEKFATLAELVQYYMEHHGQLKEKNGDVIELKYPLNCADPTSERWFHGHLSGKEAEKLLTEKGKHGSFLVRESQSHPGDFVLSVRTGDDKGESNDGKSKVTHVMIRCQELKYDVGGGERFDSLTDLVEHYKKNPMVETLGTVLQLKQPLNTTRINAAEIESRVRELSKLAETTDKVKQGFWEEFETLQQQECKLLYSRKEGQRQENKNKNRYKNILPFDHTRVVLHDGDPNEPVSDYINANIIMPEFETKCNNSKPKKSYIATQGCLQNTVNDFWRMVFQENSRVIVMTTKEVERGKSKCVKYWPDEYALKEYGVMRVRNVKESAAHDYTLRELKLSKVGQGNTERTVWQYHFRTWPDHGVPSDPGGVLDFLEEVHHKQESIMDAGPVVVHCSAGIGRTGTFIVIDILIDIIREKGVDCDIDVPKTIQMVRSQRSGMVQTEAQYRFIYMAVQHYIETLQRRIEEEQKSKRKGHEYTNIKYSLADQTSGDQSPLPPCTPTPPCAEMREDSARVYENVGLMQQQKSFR
Method: The objective of this test is to determine the inhibitory effect of the compounds on SHP-2 full-length protein allosteric activity.
Experimental method: Homogeneous Full Length SHP-2 Assay Kit (BPS Bioscience, #79330) was used to determine the in vitro SHP-2 activity. First, 18 μL of Master Mix was added to a 96-well low adsorption microplate (NUNC, #267342), i.e., the reaction buffer with a final concentration of 1× comprised 0.5 μM SHP-2 activating Peptide and 5 mM DTT. After centrifugation, 5 μL of test compound/DMSO was added to each well (the final DMSO content was 1%, V/V, the test compound was dissolved in DMSO to 1 mM, a three-fold serial dilution was carried out to obtain ten concentrations, the final concentration of the reaction system ranged from 1 μM to 0.05 nM). SHP-2 was diluted in the 1× reaction buffer to a final concentration of 0.06 nM, and the resulting solution was added to the reaction microplate (2 μL per well). Full activity control (compound only with DMSO) and full inhibition control (no SHP-2) were set up on the reaction plate. After centrifugation, the reaction mixture was incubated at room temperature for 60 minutes.
After completion of the incubation, 25 μL of Substrate solution, which comprised Substrate with a final concentration of 10 μM and 5 mM DTT, was added to each well. After centrifugation, the reaction mixture was incubated at room temperature for 30 minutes. After completion of the reaction, readings were measured on the Synergy H1 full-function microplate reader (BioTek) (excitation wavelength: 340 nm, emission wavelength: […], gain value: 75).
The IC50 value of the test compounds was calculated by fitting the percentage inhibition rate and data of ten concentrations to a four-parameter nonlinear logic formula with GraphPad prism.

SMILES	IC50 (NCI-H358 cells)	IC50 [1]
Nc1nc(N2CCC3(CC2)Cc2ncsc2[C@H]3N)cnc1Sc1ccnc(C2CC2)c1Cl [Example 98, (S)-1′-(6-amino-5-((3-chloro-2-cyclopropylpyridin-4-yl)thio)pyrazin-2-yl)-4,6-dihydrospiro[cyclopenta[d]thiazole-5,4′-piperidin]-6-amine]	18.5 nM	3.93 nM
Nc1nc(N2CCC3(CC2)Cc2ccccc2[C@H]3N)cnc1Sc1ccnc(N2CCC2)c1Cl [Example 100, (S)-1′-(6-amino-5-((2-(azetidin-1-yl)-3-chloropyridin-4-yl)thio)pyrazin-2-yl)-1,3-dihydrospiro[indene-2,4′-piperidin]-1-amine]	24.5 nM	0.98 nM
Nc1nc(N2CCC3(CC2)Cc2ccccc2[C@H]3N)c(Br)nc1Sc1ccnc(N)c1Cl [Example 95, (S)-1′-(6-amino-5-((2-amino-3-chloropyridin-4-yl)thio)-3-bromopyrazin-2-yl)-1,3-dihydrospiro[indene-2,4′-piperidin]-1-amine]	6.39 nM	6.27 nM
Nc1nc(N2CCC3(CC2)Cc2ccccc2[C@H]3N)cnc1Sc1ccnc(C2CC2)c1Cl [Example 93, (S)-1′-(6-amino-5-((3-chloro-2-cyclopropylpyridin-4-yl)thio)pyrazin-2-yl)-1,3-dihydrospiro[indene-2,4′-piperidin]-1-amine]	31.1 nM	4.33 nM
Nc1nc(N2CCC3(CC2)Cc2ccccc2[C@H]3N)cnc1Sc1ccnc(N)c1C1CC1 [Example 91, (S)-1′-(6-amino-5-((2-amino-3-cyclopropylpyridin-4-yl)thio)pyrazin-2-yl)-1,3-dihydrospiro[indene-2,4′-piperidin]-1-amine]	37 nM	17.8 nM
Nc1nc(N2CCC3(CC2)Cc2nc(Cl)sc2[C@H]3N)cnc1Sc1ccnc(C2CC2)c1Cl [Example 99, (S)-1′-(6-amino-5-((3-chloro-2-cyclopropylpyridin-4-yl)thio)pyrazin-2-yl)-2-chloro-4,6-dihydrospiro[cyclopenta[d]thiazole-5,4′-piperidin]-6-amine]	32.8 nM	29.6 nM
N[C@@H]1c2ccccc2CC12CCN(c1cnc(Sc3ccnc(C4CC4)c3Cl)cn1)CC2 [Example 97, (S)-1′-(5-((3-chloro-2-cyclopropylpyridin-4-yl)thio)pyrazin-2-yl)-1,3-dihydrospiro[indene-2,4′-piperidin]-1-amine]	41.9 nM	13.2 nM
Nc1nc(N2CCC3(CC2)Cc2ccccc2[C@H]3N)cnc1Sc1ccnc(Cl)c1C1CC1 [Example 92, (S)-1′-(6-amino-5-((2-chloro-3-cyclopropylpyridin-4-yl)thio)pyrazin-2-yl)-1,3-dihydrospiro[indene-2,4′-piperidin]-1-amine]	10.5 nM	4.17 nM
Nc1nc(N2CCC3(CC2)CC2CC2[C@H]3N)cnc1Sc1ccnc(N)c1C1CC1 (stereo partly drawn) [Example 94, (2R)-1′-(6-amino-5-((2-amino-3-cyclopropylpyridin-4-yl)thio)pyrazin-2-yl)spiro[bicyclo[3.1.0]hexane-3,4′-piperidin]-2-amine]	184 nM	11.7 nM

Other lines, results leading:

IC50 (NCI-H358 cells)	IC50 [1]	SMILES
56.5 nM	4.25 nM	CC1=CCC2(CCN(c3nc(N)c(Sc4ccnc(N)c4Cl)nc3F)CC2)[C@@H]1N [Example 184, (S)-8-(6-amino-5-((2-amino-3-chloropyridin-4-yl)thio)-3-fluoropyrazin-2-yl)-2-methyl-8-azaspiro[4.5]dec-2-en-1-amine]
10.9 nM	1.56 nM	Cc1nc(N2CCC3(CC2)Cc2ccccc2[C@H]3N)c(CO)nc1-c1cccc(Cl)c1Cl [Example 105, (S)-(3-(1-amino-1,3-dihydrospiro[indene-2,4′-piperidin]-1′-yl)-6-(2,3-dichlorophenyl)-5-methylpyrazin-2-yl)methanol]
42.6 nM	3.75 nM	Nc1nc(N2CCC3(CC2)Cc2ccccc2[C@H]3N)cnc1Sc1ccnc(N2CC(F)(F)C2)c1Cl [Example 102, (S)-1′-(6-amino-5-((3-chloro-2-(3,3-difluoroazetidin-1-yl)pyridin-4-yl)thio)pyrazin-2-yl)-1,3-dihydrospiro[indene-2,4′-piperidin]-1-amine]
37.7 nM	5.22 nM	Nc1nc(N2CCC3(CC2)Cc2ccccc2[C@H]3N)cnc1Sc1ccnc(N2CCOCC2)c1Cl [Example 101, (S)-1′-(6-amino-5-((3-chloro-2-morpholinopyridin-4-yl)thio)pyrazin-2-yl)-1,3-dihydrospiro[indene-2,4′-piperidin]-1-amine]
47 nM	0.66 nM	Nc1nc(N2CCC3(CC2)Cc2ccccc2[C@H]3N)cnc1Sc1ccnc(N2CCCC2)c1Cl [Example 103, (S)-1′-(6-amino-5-((3-chloro-2-(pyrrolidin-1-yl)pyridin-4-yl)thio)pyrazin-2-yl)-1,3-dihydrospiro[indene-2,4′-piperidin]-1-amine]
137 nM	7.71 nM	Nc1nc(N2CCC3(CC2)CCC2(CC2)[C@H]3N)cnc1Sc1ccnc(N)c1Cl [Example 151, (R)-8-(6-amino-5-((2-amino-3-chloropyridin-4-yl)thio)pyrazin-2-yl)-8-azadispiro[2.1.55.23]dodecan-4-amine]
105 nM	6.7 nM	Cc1nc(N2CCC3(CC2)Cc2ccccc2[C@H]3N)c(CO)nc1Sc1ccnc(N)n1 [Example 183, (S)-(3-(1-amino-1,3-dihydrospiro[indene-2,4′-piperidin]-1′-yl)-6-((2-aminopyrimidin-4-yl)thio)-5-methylpyrazin-2-yl)methanol]
78.5 nM	3.78 nM	Nc1nc(N2CCC3(CC=C(C4CC4)[C@H]3N)CC2)c(F)nc1Sc1ccnc(N)c1Cl [Example 182, (S)-8-(6-amino-5-((2-amino-3-chloropyridin-4-yl)thio)-3-fluoropyrazin-2-yl)-2-cyclopropyl-8-azaspiro[4.5]dec-2-en-1-amine]
25.9 nM	6.81 nM	Cc1nc(N2CCC3(CC2)Cc2ccccc2[C@H]3N)c(CO)nc1Sc1ccnc(N)c1Cl [Example 170, (S)-(3-(1-amino-1,3-dihydrospiro[indene-2,4′-piperidin]-1′-yl)-6-((2-amino-3-chloropyridin-4-yl)thio)-5-methylpyrazin-2-yl)methanol]
